Results as given in patent publication US6706509B2, “Oncoprotein protein kinase” (The Regents of the University of California, priority 1993, dated 2004).

Tests used:
Ha-Ras = assay: GTP content of Ha-Ras in 32P-labelled Jurkat cells; assay type: cell-based, human; conditions: for Ha-Ras activation measured by increase in GTP content, agent alone: 10 ng/ml TPA, 1 μg/ml anti-CD3 or 2 μg/ml anti-CD28, 2 minutes
Protocol: Jurkat cells 10×10^6 were labelled for 3 hours with ^32P-orthophosphate (ICN Radiochemicals) at 1 mCi/ml in 5 mM of Na3VO4 phosphate-free DMEM supplemented with 1 mg/ml BSA. Before harvest, cells were stimulated with TPA, 10 ng/ml, A23187, 1 μg/ml anti-CD3 antibody (OKT3), 10 μg/ml, anti-CD28 antibody, 2 μg/ml or their combinations. After treatment for a specified period, cells were washed once immediately with ice cold PBS, twice with ice-cold Tris-Buffered saline (50 mM Tris-HCl, pH 7.5, 20 mM MgCl2, 150 mM NaCl, […] Nonidet P-40/1 μg/ml of aprotinin, leupeptin, pepstatin and 1 mM phenylmethyl sulfonylfluoride). Ras p21 was immunoprecipitated with monoclonal antibody […] (Santa Cruz Biotechnology, Inc., Santa Cruz, Calif.). The GDP/GTP content of Ras was analyzed by TLC as described (Satoh, et al., Proc. Natl. Acad. Sci., USA, 15:5993, 1990) and quantitated with an Ambis radioanalytic image system (Ambis, San Diego, Calif.).
Jurkat cells (2×10^6 cells per point) labeled with 0.4 mCi of ^32P-orthophosphate for 3 hours were incubated with nonspecific antibody (1 μg/ml mouse IgG; control), 1 μg/ml anti-CD3, 2 μg/ml anti-CD28, 10 ng/ml TPA or 500 ng/ml A23187 (A), as indicated. After 2 minutes, the cells were harvested, lysed and Ha-Ras was isolated by immunoprecipitation. The guanine nucleotide bound to Ha-Ras were extracted, separated by thin layer chromatography and quantitiated as described in EXAMPLE 9. The values shown represent the averages of two separate experiments done in duplicates. Jurkat cells were labeled with ^32P-orthophosphate and stimulated with either TPA or anti-CD3 as described above. At the indicated time points, the cells were harvested and the GTP content of Ha-Ras was determined as described directly above.

MEK = MEK assay with kinase-defective ERK1 substrate, Jurkat cells and mouse thymocytes; assay type: cell-based, human; mouse
Protocol: JNK is a proline-directed protein kinase activated by extracellular stimuli (Hibi, et al., supra, 1993). In that respect, it resembles the ERK1 and 2 MAP kinases (Boulton, et al., Cell, 65:663-675, 1991). Since ERK1 and 2 appear to be involved in induction of c-fos (Gille, et al., Nature, 358:414-417, 1992; Marais, et al., Cell, 73:381-393, 1993) and could thereby participate in T cell activation, their regulation was examined. ERK1 and ERK2 activities were measured in both Jurkat and mouse thymocytes using an immunecomplex kinase assay and myelin basic protein (MBP) as a substrate. Recombinant, kinase-defective ERK1 was also used a substrate for assaying MEK, the protein kinase responsible for activation of ERK1 and 2 (Crews, et al., Science, 258:478-480, 1992).
WCE (5 μg) of Jurkat (FIG. 15, panel A) or mouse thymocytes (panel C) were incubated with 1 μg of kinase-defective ERK1 in kinase buffer containing γ-^32P-ATP for 20 minutes. The phosphorylated proteins were separated by SDS-PAGE and the band corresponding to the mutant ERK1 is indicated. WCE (20 μg) of Jurkat (panel B) or mouse thymocytes (panel C) that were treated as described above were immunoprecipitated with anti-ERK antibodies (a gift from Dr. M. Weber). The immune complexes were washed and incubated in kinase buffer containing γ-^32P-ATP and 2 μg MBP for 15 minutes at 30° C. The phosphorylated proteins were separated by SDS-PAGE. The band corresponding to phosphorylated MBP is indicated.

jun-B = assay: Northern blot of jun-B expression in Jurkat cells; assay type: cell-based, human; conditions: 40 minutes; for effect on jun-B induction by TPA: A23187 1 μg/ml or CsA 100 ng/ml
Protocol: Exponentially growing Jurkat cells (10^6/ml) grown in complete RPMI medium was pretreated with CsA for 15 minutes when applicable, then subjected to various treatments for another 40 minutes. Total cytoplasmic RNA was extracted as previously described (Angel, et al., Cell, 49:729-739, 1987). 10 μg RNA was denatured by incubating with glyoxal for 60 minutes at 55° C. and fractionated on a 1% agarose gel in phosphate buffer. The fractionated RNA was blotted to Zetabind Nylon membrane (CUNO Labs) and hybridized to ^32P-labelled cDNA probes specific for c-jun, jun-B, jun-D, c-fos, α-tubulin and IL-2.
During the first stage of T lymphocyte activation, early response genes are rapidly included (Crabtree, Science, 243:355,361, 1989; Zipfel, et al., Mol Cell Bio., 9:1041-1048, 1989). Induction of jun and fos genes during activation of the Jurkat T cell line was investigated. Two different co-stimulatory paradigms were used, one employing TPA and the Ca^2+ ionophore A23187, and the second based on simultaneous stimulation of the TCR complex with an antibody to its CD3 component (OKT3; Van Wauwe, et al., J. Immunol., 124:2708-2713, 1980) and stimulation of the CD28 auxiliary receptor with an anti-CD28 antibody (9.3; Hansen, et al., Immunogenetics, 10:247-260, 1993; June, et al., Immunol. Today, 11:211-216, 1990). Total cytoplasmic RNA was extracted from Jurkat cells that were incubated with 50 ng/ml TPA (T), 1 μg/ml A23187 (A) or 100 ng/ml cyclosporin A (CsA) for 40 minutes, either alone or in combinations, as indicated. After fractionation of 10 μg samples on an agarose gel and transfer to nylon membrane, the level of c-jun, jun-B, jun-D, c-fos and α-tubulin expression was determined by hybridization to random primed cDNA probes.

| Compound | MEK activity, effect of A23187 or CsA (MEK) | effect on jun-B induction by TPA (jun-B) | Ha-Ras activation measured by increase in GTP content, agent alone (Ha-Ras) | other results |
| --- | --- | --- | --- | --- |
| CNc1ccc2oc(C[C@H]3O[C@@]4(CC[C@H]3C)O[C@H]([C@H](C)C(=O)c3ccc[nH]3)[C@H](C)C[C@H]4C)nc2c1C(=O)O [A23187] | had no effect on either activity | not affected |  | Ha-Ras activation by anti-CD3 or TPA, costimulation with anti-CD28 or A23187, respectively (Ha-Ras): not augmented |
| CCCCCCCCCCCCCC(=O)O[C@@H]1[C@@H](C)[C@@]2(O)[C@@H](C=C(CO)C[C@]3(O)C(=O)C(C)=C[C@@H]23)[C@H]2C(C)(C)[C@]12OC(C)=O [TPA] |  |  | activation of Ha-Ras | persistence of Ha-Ras activation (Ha-Ras; TPA): at least 20 minutes; MEK activity, TPA treatment (MEK; Jurkat cells or mouse thymocytes): fully stimulated; jun-B expression, agent alone (jun-B; TPA 50 ng/ml): induced |
| anti-CD3: anti-CD3 monoclonal antibody OKT3 |  |  | activation of Ha-Ras | time course of Ha-Ras response (Ha-Ras; soluble anti-CD3): highly transient |
| cyclosporin A [CsA] | had no effect on either activity | not affected |  |  |
